Where two headings read alike, the source gives them in different places.
Assays:
[1] = tested on: vaginal mucosa; parameters: method as in PMID 11162774; details: vaginal toxicity, New Zealand White rabbit; cited from earlier work
[2] = tested on: HIV-1; parameters: method as in PMID 15790304; details: cited from earlier work
[3] = tested on: X4-tropic HIV-1NDK; test: Inhibition of infection of dendritic cells by X4-HIV-1NDK (p24 ELISA); type: cell-based; details: DC, mean ± 1 SD
Protocol: (§1) Primary X4-HIV-1NDK was grown in peripheral blood lymphocytes (PBL) of healthy donors stimulated with PHA and rhIL-2. R5-HIV-1Ba-L was amplified in monocyte-derived macrophages of healthy donors.
(§2) Cells were washed 2 times after 6 days of differentiation and seeded into 96-well culture plates (5 × 10^5 cells/well). HIV-1 (1 ng p24 antigen/ml) and increasing concentrations of molecules were added on cells and incubated for 3 hours at 37°C in a 5% CO2 atmosphere. Each sample was performed in triplicate. After 4 washes to remove exceeding virus, cells were cultured for 3 days. […] In this last case, supernatants were harvested and viruses produced were lysed by incubation for 45 minutes at 37°C with 1% Triton X-100.

[4] = tested on: X4-tropic HIV-1 particles; details: 20 μM
Protocol: (§5) As expected, no viral production was detected in control wells containing triton X100-treated HIV-1 and activated PBL (negative control).
(§6) HIV-1 was adsorbed on poly-L-lysin pre-coated wells (Greiner Bio-One) at 4°C overnight and further incubated with C14 for 1 h. In positive and negative control wells, 1% Triton X-100 and medium were added, respectively. […] After 6 days, viral production was assessed by p24 Ag capture ELISA.

[5] = tested on: R5-tropic HIV-1Ba-L; test: Inhibition of infection of dendritic cells by R5-HIV-1Ba-L (p24 ELISA); type: cell-based; details: DC, mean ± 1 SD
Protocol: as §1, §2

[6] = tested on: R5-tropic HIV-1Ba-L particles
Protocol: as §5, §6

[7] = tested on: R5-tropic HIV-1Ba-L; details: 1 μM, 3 hours
Protocol: Monocytes or PBL (10E5 cells) were adsorbed on a microscopy-adapted slide for 6 days. MDDC, MDM or PBL were infected in the presence of C14 diluted at 10 μM for 3 hours. Cells were then washed and incubated with or without polyclonal antibodies anti-gp160 (50 μg/ml) at 4°C for 30 minutes. Cells were washed with PBS 0.01% azide 0.5% BSA, and were labelled with polyclonal mouse anti-human IgG-FITC (Jackson ImmunoResearch Laboratories, West Grove, PA, USA) and then fixed with 1% paraformaldehyde. The coverslides were mounted in Mowiol (Sigma-Aldrich). The observations were made by sequential acquisition with a Zeiss LSM510 System, mounted on an Axiovert 100 M optical microscope (Carl Zeiss AG, Oberkochen, Germany), using a planapochromat ×63, 1.4 numerical aperture oil immersion objective. Optical sections were acquired, each one with an image resolution of 512 × 512 pixels.
Cells were incubated with R5-tropic HIV-1Ba-L in the presence of 1 μM of C14 for 3 hours. […]
Monocyte-derived macrophages, monocyte-derived dendritic cells and T cells were incubated with R5 viruses in the presence of increasing concentrations of C14 for 3 hours at 37°C. […] Cells were then analysed by confocal microscopy. […] 30 cells were at least analyzed for each donor.

[8] = tested on: R5-tropic HIV-1Ba-L; test: Inhibition of infection of macrophages by R5-HIV-1Ba-L (p24 ELISA); type: cell-based; details: MΦ, mean ± 1 SD
Protocol: as §1, §2

[9] = tested on: X4-tropic HIV-1NDK; test: Inhibition of infection of T cells by X4-HIV-1NDK (p24 ELISA); type: cell-based; details: mean ± 1 SD
Protocol: as §1, §2

[10] = tested on: X4-tropic HIV-1NDK; test: Inhibition of infection of macrophages by X4-HIV-1NDK (p24 ELISA); type: cell-based; details: MΦ, mean ± 1 SD
Protocol: as §1, §2

[11] = tested on: R5-tropic HIV-1Ba-L; test: Inhibition of infection of T cells by R5-HIV-1Ba-L (p24 ELISA); type: cell-based; details: mean ± 1 SD
Protocol: as §1, §2

[12] = tested on: R5-tropic HIV-1
Protocol: (§3) To assess the transmission of HIV-1 from MDDC to autologous T-cells, MDDC were incubated into 96-well culture plates (10^5 cells/well) and infected with HIV-1 (1 ng p24) in the presence of increasing concentrations of molecules for 3 hours at 37°C in a 5% CO2 atmosphere. Cells were washed four times and autologous stimulated T cells were added onto infected MDDC at a MDDC/T-cell ratio of 1/5 for 6 days. Each sample was performed in triplicate. Culture supernatants were harvested every 3 days and fresh medium was added. Supernatants were inactivated with 1% Triton X-100. The viral production by T lymphocytes was evaluated the sixth day of the co-culture by measurement of HIV-1 p24 antigen in supernatants using capture ELISA.
(§4) Culture supernatants were harvested after 7 of culture for measurement of HIV p24 antigen.

[13] = tested on: X4-tropic HIV-1
Protocol: as §3, §4

[14] = tested on: HIV-1 DNA (R5-HIV-1Ba-L or X4-HIV-1NDK); test: HIV-1 DNA content of primary cells by real time PCR; details: all primary cells, whatever the viral strain; increasing doses
Protocol: Genomic DNA was isolated from HIV-infected macrophages by using extraction protocol on a silica column system according to the manufacturer's instructions (Qiagen DNA minikit, AG, Basel, Switzerland). […] The LC-PCR master mix contained 1 × Fast-Start Taq DNA polymerase reaction buffer (Roche Applied Science), 3 mM MgCl2, 0.3 μM of each primer and probe. Cycling conditions were as follows: initial denaturation/FastStart Taq DNA polymerase activation at 95°C/10 minutes, 45 cycles of denaturation at 95°C/10 seconds, annealing and extension at 60°C/30 seconds with a ramp of 5°C/seconds. The first PCR cycle allowing fluorescence detection permitted to quantify HIV-1 DNA by reference to a standard curve (dilutions of 8E5 cell DNA). All reactions were performed in triplicate and tested in the same assay. […] The normalized value of cell-associated HIV-1 DNA loads corresponding to the ratio [(HIV-1 copy number/albumin copy number) × 2 × 10^6], was finally expressed as the number of HIV-1 DNA copies per 10^6 cells.
Monocyte-derived macrophages (A), monocyte-derived dendritic cells (B) and T cells (C) were incubated with R5 or X4 viruses in the presence of increasing concentrations of C14 or an unique dose of T 20 (5 μM) for 3 hours at 37°C. […] DNA was extracted and the viral DNA was quantified by real time PCR. […]

[15] = tested on: HIV-1
[16] = tested on: CD4, CXCR4 and CCR5; details: primary cells treated with C14
Protocol: Cell surface antigens were analyzed by FACSCalibur (Becton Dickinson, NJ, USA) using monoclonal antibodies (mAbs) conjugated with either fluorescein isothiocyanate (FITC) or phyco-erithryn (PE). Following incubation with different mAbs for 30 min at 4°C, cells were washed with PBS containing azide (0.01%), BSA (0.2%) and fixed using 1% formaldehyde PBS buffer.

CCCCCCCCCc1ccc(OCCOCCOCCOCCOCCOCCOCCOCCOCCO)cc1 [nonoxynol-9]
score of histological changes [1]: about 8 ± 3

C=C(C)[C@@H]1CC[C@]2(C(=O)NCCCCCCCC(=O)N[C@@H](CC(C)C)[C@H](O)CC(=O)O)CC[C@]3(C)[C@H](CC[C@@H]4[C@@]5(C)CC[C@H](O)C(C)(C)[C@@H]5CC[C@]43C)[C@@H]12 [IC9564]
inhibition of HIV-1 replication, active concentration [2]: nanomolar concentrations

C=C(C)[C@@H]1CC[C@]2(C(=O)O)CC[C@]3(C)[C@H](CC[C@@H]4[C@@]5(C)CC[C@H](OC(=O)CC(C)(C)C(=O)O)C(C)(C)[C@@H]5CC[C@]43C)[C@@H]12 [PA-457]
inhibition of HIV-1 replication, active concentration [2]: nanomolar concentrations

zinc tetra-ascorbo-camphorate [C14]
IC50 [3]: 1.8 ± 0.1 µM | disruption of HIV-1 particles [4]: 58 ± 2% | IC50 [5]: 1.3 ± 0.1 µM | HIV-1 production by activated PBL, virus treated versus untreated with C14 [6]: similar | inhibition of entry of viruses ([7]; T cells): inhibited the entry of viruses only into T cells | inhibition of entry of viruses ([7]; macrophages and DCs): unlike in macrophages and DCs | IC50 [8]: 1.3 ± 1 µM | IC50 [9]: 0.7 ± 0.1 µM | IC50 [10]: 0.02 µM | IC50 [11]: 0.8 µM | inhibition of HIV-1 transfer from DC to T cells ([12]; 1 μM): about 95% | inhibition of HIV-1 transfer from DC to autologous T cells ([12]; low concentrations): more than 90% | inhibition of HIV-1 transfer from DC to T cells ([13]; 1 μM): about 95% | inhibition of HIV-1 transfer from DC to autologous T cells ([13]; low concentrations): more than 90% | reduction of the HIV-1 DNA content [14]: 2–3 log | IC50 ([15]; different primary cells): 1 µM | EC50 ([15]; infection of all the primary cells tested): 1 µM | cell surface expressions of CD4, CXCR4 and CCR5 [16]: not altered

Source: PMC2426711 (AIDS Research and Therapy, 2008)
